In data set [1] the test system is Staphylococcus epidermidis RP62a. Nature of the data set: Broth microdilution (MIC/MBC). It counts as cell-based. To be noted: human clinical isolate. For orientation: Broth dilution looks for growth in wells or tubes with falling amounts of substance.
The test system of data set [2] is E. coli APEC O2 (in house strain). Nature of the data set: Broth microdilution (MIC/MBC). The format is cell-based. The settings on record: Escherichia coli; APEC O2, veterinary clinical isolate.
For the next data set, the system named is Proteus vulgaris JEO1. Kind of data set: Broth microdilution (MIC/MBC). The settings on record: JEO1, veterinary clinical isolate. The format is cell-based.
The test system of data set [3] is five bacterial tester strains. Nature of the data set: Ames test, overall evaluation (five tester strains). The settings on record: in general. It counts as cell-based. The source says:
In this reverse mutation assay, five bacterial tester strains recommended by The Organization for Economic Cooperation and Development (OECD), were exposed to JBC 1847 in presence and absence of a metabolic activation system (S9) obtained from rat liver extract ([Maron and Ames, 1983]; [Levy et al., 2019]). The characteristics of the four Salmonella typhimurium mutants (TA98, TA100, TA1535, TA1537) and a single Escherichia coli mutant [wp2 (pKM101)] have been described by [Mortelmans and Zeiger (2000)] and [Levy et al. (2019)]. Prior to testing, the genotypes of all strains were confirmed as previously described ([Mortelmans and Zeiger, 2000]), and JBC 1847 was tested in various concentrations (1.5, 4, 10, 25, 64, 160, 400, and 1,000 μg/well) whereas DMSO served as negative control. As positive controls, five mutagenic compounds were applied in various concentrations (Supplementary Material). The Ames test was performed as described in Supplementary Material where acceptance criteria for the test results can also be found. To evaluate the test results, the mutagenicity ratio (MR) was calculated and interpreted as in previous studies ([Pah and Lakhani, 2012]; [Wang et al., 2018]). The MR was calculated as MR = x/xn. Here, x was the number of reverse mutated colonies exposed to JCB 1847 whereas xn was the number of reverse mutated colonies in the negative controls. […]

For another data set, the system named is MRSA USA300. Nature of the data set: Transmission electron microscopy. It counts as cell-based, Staphylococcus aureus. To be noted: concentration corresponding to the MIC, 1 h, vs untreated control. How it is done:
To elucidate the interaction between JBC 1847 and MRSA USA300, transmission electron microscopy (TEM) was carried out. Bacterial cultures were inoculated in 10 ml MHB and cultivated at 37°C for 5 h, with shaking, until mid-exponential growth phase ([…]). […] An untreated control was also prepared. The five samples were placed on ice until being prepared for TEM. This included a fixation step in 2% glutaraldehyde in 0.15 M sodium phosphate buffer (pH 7.2). Subsequently, the fixed cells were washed three times and postfixed with 0.2% OsO4 (osmium tetroxide) in H2O/0.15 M sodium phosphate buffer (pH 7.2) for 1 h. The samples were then dehydrated with graded acetone, and then embedded in epoxy resin. Ultrathin sections of the samples were prepared using Formvar-coated copper grids, which were stained using 3% uranyl acetate. The samples were placed in a Philips CM 100 Transmission EM (Philips, Eindhoven, Netherlands) and exposed to 120 keV electron energy.

In a further data set the test system is S. aureus ATCC-BAA. Kind of data set: Agar dilution MIC. To be noted: Staphylococcus aureus, MHA plates. The format is cell-based. The protocol:
(§1) Initially, MHA plates with JBC 1847 concentrations ranging from 0.5 to 8 mg/L were made and bacterial inoculum was prepared as previously described, was added to each plate. […] The MIC values for the two S. aureus strains were both determined to 4 mg/L and therefore, TSA plates with a JBC 1847 concentration of 2 mg/L were prepared to ensure the strains were able to grow. One dish of each type of antibiotic was added to a single TSA plate with JBC 1847 and a control plate containing only TSA and inoculated as previously described. Two plates containing only 2 mg/L JBC 1847 and bacterial inoculum for each strain served as a positive control. After incubation, clearing zones were measured and compared between control and JBC 1847 plates.

In the next data set the test system is S. aureus USA300 JE2. Nature of the data set: Agar dilution MIC. To be noted: Staphylococcus aureus, MHA plates. It counts as cell-based. The protocol:
as §1
A general note: In agar dilution the substance is mixed into plates at graded concentrations.

A further data set has as its system MRSA strain 43484. Nature of the data set: Mouse skin (wound) infection model, topical treatment. The format is in vivo, Staphylococcus aureus. To be noted: 50 μl topical twice daily for 3 days, female mice, skin biopsies day 4. How it is done: To study the effect of topical treatment with JBC 1847 against MRSA strain 43484, a mouse skin infection model was established. Initially, female mice (18–22 g) were orally treated with 45 μl nurofen (20 mg ibuprofen/ml) and anaesthetized with 0.15 ml s.c. of Zoletil mix. The fur was removed from an area of 6 cm^2 and a part of epidermis was subsequently scraped off to obtain a 1 cm^2 superficial skin lesion. The mice were inoculated with 10 μl of a saline solution containing approximately 10^7 CFU. The day after inoculation, topical treatment with 50 μl test compound was initiated and performed twice daily for a 3-day period. Fucidic acid was included as a positive control, and vehicle treatment was included as a negative control. Through the entire study, the behavior and clinical signs of the mice were carefully observed. Mice were killed the day after last treatment, and skin biopsies from the wounded area were collected. The skin samples were homogenized using a Dispomixer and serially diluted in saline/Triton X. To determine the bacterial concentration, 20 μl spots were transferred to MRSA Brilliance agar plates (Oxoid, Thermo Scientific, Roskilde, Denmark) and incubated 20–48 h at 35°C.
Data were statically analyzed and visualized using RStudio v3.6.3 ([R Core Team, 2020]) and Microsoft excel. In general, the values reflecting the bacterial concentration (CFU/ml) were transformed into a logarithmic scale. In the growth and viability assay, the mean numbers of the bacterial concentrations from the triplicates were plotted against time and standard deviations shown as error bars. To investigate differences in bacterial concentration between treatment groups in the in vivo assay, multiple group comparisons were performed using ANOVA and P < 0.05 considered significant. The data was visualized in a standard box plot.

For data set [4], the system named is Enterococcus faecium ATCC 700221. Nature of the data set: Broth microdilution (MIC/MBC). It counts as cell-based. To be noted: ATCC700221, ATCC 700221, human clinical isolate.
Data set [5] has as its system S. epidermidis 105 (in house strain). Nature of the data set: Broth microdilution (MIC/MBC). It counts as cell-based. The settings on record: Staphylococcus epidermidis; strain 105, human clinical isolate.
Data set [6] has as its system Cutibacterium acnes P10140156 (in house strain). Kind of data set: Broth microdilution (MIC/MBC), anaerobic. The format is cell-based.

Consider `CC(C)=CCCC(C)CC[N+](C)(C)CCCN1c2ccccc2Sc2ccccc21` (centres unmarked) [JBC 1847], for which the minimal inhibitory concentration (MIC) (as a rule, the smallest concentration in the dilution series that meets the test's criterion for growth inhibition) in data set [1] amounted to 0.5 µg/mL; in [2], 16 µg/mL; in the data set on Proteus vulgaris JEO1, 32 µg/mL; against S. aureus ATCC-BAA, 4 µg/mL; with S. aureus USA300 JE2, 4 µg/mL; in data set [4], 2 µg/mL. Further, the results for the MIC in [5] and in data set [6] (BHI with 1% L-cysteine) were 0.5 µg/mL and 0.5 to 1 µg/mL, respectively. The minimal bactericidal concentration (MBC) (in general, the smallest concentration meeting the test's criterion for killing) in [2] was 16 µg/mL; in the data set with Proteus vulgaris JEO1 it was 32 µg/mL; in [4], 2 to 4 µg/mL; in data set [6] (BHI agar with 1% L-cystein), 0.5 to 1 µg/mL. Moreover, the “Mutagenicity ratio (MR)” value in data set [3] (all strains, MR ≥ 2 interpreted as positive) is listed as < 2. In addition, the Ames test result in data set [3] (presence and absence of S9) is on record as “non-mutagenic”. Further, the “TEM appearance of bacterial cells” value in the data set on MRSA USA300 was “clearly lysed and the plasma membrane destroyed”. Besides, the results for the “Reduction of bacterial counts compared with the vehicle” value in the data set with MRSA strain 43484 (1% solution) and in the data set with MRSA strain 43484 (2%) were 3.0 log10 CFU and 3.7 log10 CFU, respectively.

These data come from PMC7555839 (Frontiers in Microbiology, 2020).
